The values that follow come from BindingDB's records for doi:10.1074/jbc.M113.533885 (University of Texas Southwestern Medical Center, 2014).

For experiment [1], the target named is T1, [Pyruvate dehydrogenase (acetyl-transferring)] kinase isozyme 2, mitochondrial (Homo sapiens, UniProt Q15119). In words: PDK Inhibition Assay. As to conditions: pH 7.5; 25 °C.
Experiment [2] has as its target [Pyruvate dehydrogenase (acetyl-transferring)] kinase isozyme 4, mitochondrial (Homo sapiens, UniProt Q16654). Briefly: PDK Inhibition Assay. To be noted: pH 7.5; 25 °C.
Experiment [3] addresses T2, Heat shock protein HSP 90-alpha [1-236] (Homo sapiens, UniProt P07900).
T2 construct: 1-236
Briefly: Isothermal Titration Calorimetry (ITC). To be noted: pH 7.5; 15 °C. On the procedure:
(§1) The PDK2 or Hsp90 N-terminal domain protein was dialyzed against 1 liter of thedialysis buffer containing 50 mM Tris-Cl, pH 7.5, 50 mM KCl, 1 mM MgCl2, and 0.5 mM β-mercaptoethanol.

For experiment [4], the target named is T1, [Pyruvate dehydrogenase (acetyl-transferring)] kinase isozyme 2, mitochondrial. Briefly: Isothermal Titration Calorimetry (ITC). To be noted: pH 7.5; 15 °C. On the procedure:
as §1

[Pyruvate dehydrogenase (acetyl-transferring)] kinase isozyme 4, mitochondrial, sequence (Q16654 whole entry): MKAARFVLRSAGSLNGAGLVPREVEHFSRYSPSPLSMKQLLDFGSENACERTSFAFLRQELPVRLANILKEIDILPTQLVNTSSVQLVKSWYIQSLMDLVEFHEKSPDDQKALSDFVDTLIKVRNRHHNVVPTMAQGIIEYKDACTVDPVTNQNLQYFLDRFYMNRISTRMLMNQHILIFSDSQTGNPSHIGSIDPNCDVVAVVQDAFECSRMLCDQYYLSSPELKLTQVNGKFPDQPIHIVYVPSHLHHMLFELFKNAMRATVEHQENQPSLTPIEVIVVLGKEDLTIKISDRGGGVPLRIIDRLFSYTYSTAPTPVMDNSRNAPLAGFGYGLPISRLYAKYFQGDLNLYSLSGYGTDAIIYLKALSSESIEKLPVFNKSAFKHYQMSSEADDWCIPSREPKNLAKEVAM

Turning to `O=C(O)C(Cl)Cl` [DCA], the IC50 in experiment [1] is 183 µM; in experiment [2] it was 80 µM.
Take `Oc1ccc(-c2nnc(S)n2-c2cccc3ccccc23)c(O)c1` [Resorcinol analog, 1]: the IC50 came out at 3.82 µM in experiment [1] and 0.28 µM in experiment [2]. In addition, the Kd in experiment [3] is 0.025 µM; in experiment [4], 6.76 µM.
